In patent US20050152835A1, “Technetium-99M glucarate methods of use for monitoring tissues” (priority 2003, published 2005):

Experiments:
MCF7/D40 tumor xenograft = assay: FASTSPECT dynamic imaging and tumor washout kinetics, drug-resistant (Pgp positive) xenograft; type: in vivo, SCID mice
Protocol: Tumor cell lines used. MCF7/S: Cells are parental, drug (doxorubicin) sensitive, breast carcinoma cells. MCF7/D40: Cells were generated in vitro by successive culturing parental MCF7 cells in slowly increasing concentrations of doxorubicin with a total selection time of 31 months. Twenty-eight SCID mice were studied. MCF7/S or MCF7/D40 tumors were grown for 10-14 days after subcutaneous injection of 1×10^6 cells into the right thigh. Groups of mice with the xenografted tumors included: (MCF7/S group: MIBI: n=9; GLA: n=8) and (MCF7/D40 group: MIBI: n=6; GLA: n=5).
The dynamic imaging system SPECT consisted of 24 small modular gamma cameras. Each modular camera consists of a 10 cm×10 cm NaI(Tl) scintillation crystal, 4 square (5 cm×5 cm) Hamamatsu photomultiplier tubes. The system included a cylindrical aperture with twenty four 1-mm diameter pinholes drilled in the aperture. A point source in the center of the field of view is projected simultaneously to the center of each camera. Total magnification is 3.5 in a 3.0 cm×3.2 cm×3.2 cm field of view. The spatial resolution of the system is about 1.0 mm, with a sensitivity of 13.3 cps/μCi.
^99mTc-GLA or ^99mTc-MIBI (5-8 mCi, 185-296 MBq) was injected via a jugular vein catheter. Dynamic images were acquired for 2 hours. Twenty-four projections were obtained, one from each camera. Each scintillation event within the camera's NaI crystal was registered as the digitized outputs from the camera's four photomultiplier tubes. The four photomultiplier outputs were compared to a 20-bit look-up table derived from a calibration procedure that involved moving a collimated source across the camera face.
Tumor image reconstruction was performed using 100 iterations of the maximum-likelihood expectation-maximization (ML-EM) algorithm. Using SlicerDicer software, three-dimensional images were computed to provide images in a 33×49×49 voxels format, and generate tomographic transaxial, coronal and sagittal slices with one-pixel thickness (1.0 mm). Regions of interest (ROI) over the tumors were created and applied to the dynamic images for determining time-activity curves. The percent washout rate relative to the peak uptake of the tumors were calculated.

[1] = system: ischemic-reperfused myocardium; assay: FASTSPECT hot spot imaging and washout kinetics in ischemic-reperfused rat heart models (IR30, IR90); type: in vivo; parameters: half-time value (t1/2) of washout, late phase / half-time value (t1/2) of washout, early phase: unit not given here; settings: for GLA hot spot size (% LV): 120-min image, mean ± SEM; for GLA hot spot size (% IAR): normalized to ischemic area at risk; for averaged ratio of whole-heart hot spot activity to normal myocardial activity: two hours after injection
Protocol: Ischemic-Reperfused Rat Heart Models were prepare from Male Sprague-Dawley rats (weight, 250-300 g) that were anesthetized with 1.0%-1.5% isoflurane. The model of myocardial ischemia-reperfusion was developed using know techniques. The rat was prepared by first removing the fur from the chest and neck region with electric clippers. The jugular vein was catheterized through a surgical procedure. An incision was made over the jugular furrow, and blunt and sharp dissection was used to isolate the jugular vein. A PE-10 catheter was advanced through a nick made by micro scissors and then secured by ligatures. After tracheotomy, the rats were ventilated using a volume-controlled Inspira Advanced Safety Ventilator (Harvard Apparatus, Inc.) with a mixture of oxygen and room air. Using each animal's weight, the tidal volume (1.2 mL/100 g) and respiration rate (65-70 breaths/min) were automatically calculated in Safe Range settings (Harvard Apparatus). With a left intercostals thoracotomy incision, the chest was opened at the fourth or fifth intercostal space. The pericardium was opened and the heart was exposed. A small, curved, tapered needle threaded 5-0 silk through the tissue between the pulmonary cone and the left auricular appendage. A ligature was placed around the LCA with a small amount of myocardium. The ligature was pulled tight by passing the suture through a polyethylene tubing and clamping it for coronary occlusion. After the LCA was occluded for 30 or 90 min, 30 min of reperfusion was achieved by releasing the ligature. Hydrochloride lidocaine (5%) was administered via intravenous injection and cardiac surface drop when ventricular fibrillation was induced by LCA occlusion or reflow. During the period of surgery and ischemia-reperfusion treatment, the body temperature of the animal was maintained with a heating pad. The chest of the rat was closed before the animal was imaged with FASTSPECT.
Eighteen rats were divided into 2 groups to receive regional myocardial ischemia-reperfusion treatments. Group 1 animals (IR30, n=12 [IR=ischemia-reperfusion]) were treated by ligating the LCA for 30 min and releasing the ligature for 30 min. The LCA in group 2 animals (IR90, n=6) was ligated for 90 min and then released for 30 min.
Radiopharmaceutical preparation; GLA kits were provided by Molecular Targeting Technologies Inc. The reagent in the vial was a sterile, nonpyrogenic, lyophilized composition of […], GLA, sodium bicarbonate, and hydrochloric acid. A vial of GLA was reconstituted by the addition of 1 mL of ^99mTc as sodium pertechnetate (no <2.59 GBq [no <70 mCi]) in accordance with the manufacturer's instructions. The solution in the vial was allowed to stand at room temperature for 15 min. ^99mTc-GLA radiochemical purity (RCP) was verified by thin-layer liquid chromatography using Gelman instant thin-layer silica gel (ITLC-SG) strips developed in saline and acetone. In the ITLC-SG strip developed by saline, ^99mTc-colloid remained at the origin while ^99mTc-GLA and ^99mTc-pertechnetate migrated near the solvent front. In the strip developed by acetone, ^99mTc-GLA and ^99mTc-colloid remained at the origin while ^99mTc-pertechnetate moved near the solvent front. The RCP of ^99mTc-GLA exceeded 95% for all experimental injections. ^99mTc-GLA was used within 3 h after preparation.
The high-resolution stationary SPECT system, FASTSPECT, was built in the Department of Radiology Research Laboratory at The University of Arizona (as described by references 9-11 in Liu et. al, J. Nucl. Med. (2004), vol. 45, pp 1251-1259). In this system, 24 small modular γ cameras are arranged in 2 circular arrays with a cylindric aperture. […] Twenty-four 1-mm diameter pinholes were drilled in the aperture such that a point source in the center of the field of view (FOV) is simultaneously projected to the center of each camera. The dead space between adjacent cameras at the director surface is 7% of the total area. […]

^99mTc-glucarate
two-hour fractional washout (% peak activity) (MCF7/D40 tumor xenograft): 71.9±2.9%
GLA hot spot size (% LV) ([1]; IR30 (n = 12)): 28.4 ± 2.1 % LV
GLA hot spot size (% IAR) ([1]; IR30 (n = 12)): 58.4 ± 2.7 % IAR
time after injection the infarct remained well defined ([1]; IR30 and IR90 hearts): at least 120 min
hot spot/normal ratio in group 1 (IR30) relative to group 2 (IR90), fold lower ([1]; IR30 vs IR90): 1.94 fold
GLA hot spot size (% LV) ([1]; IR90 (n = 6)): 42.0 ± 2.6 % LV
GLA hot spot size (% IAR) ([1]; IR90 (n = 6)): 75.9 ± 2.7 % IAR
final ratio of hot spot to normal myocardial activity ([1]; group 1 (IR30)): 4.91±0.71
averaged ratio of whole-heart hot spot activity to normal myocardial activity ([1]; group 1 (IR30)): 4.1±0.3
final ratio of hot spot to normal myocardial activity ([1]; group 2 (IR90)): 9.53±1.76
averaged ratio of whole-heart hot spot activity to normal myocardial activity ([1]; group 2 (IR90)): 7.1±1.1
half-time value (t1/2) of washout, early phase ([1]; hot spot, IR30): 2.4±0.4
half-time value (t1/2) of washout, late phase ([1]; hot spot, IR30): 216.3±23.8
fractional retention (% peak) by the end of experiment ([1]; hot spot, IR30 (30-min LCA occlusion, 30-min reperfusion), 2 h): 31.0±1.3 % peak
half-time value (t1/2) of washout, early phase ([1]; hot spot, IR90): 3.8±1.1
half-time value (t1/2) of washout, late phase ([1]; hot spot, IR90): 511.5±74.2
fractional retention (% peak) by the end of experiment ([1]; hot spot, IR90 (90-min LCA occlusion, 30-min reperfusion), 2 h): 42.1±4.0 % peak
half-time value (t1/2) of washout, early phase ([1]; normal zone, IR30): 1.6±0.4
half-time value (t1/2) of washout, late phase ([1]; normal zone, IR30): 66.6±5.5
fractional retention (% peak) by the end of experiment ([1]; normal zone, IR30, 2 h): 7.5±1.0 % peak
half-time value (t1/2) of washout, early phase ([1]; normal zone, IR90): 2.0±0.2
half-time value (t1/2) of washout, late phase ([1]; normal zone, IR90): 49.1±2.9
fractional retention (% peak) by the end of experiment ([1]; normal zone, IR90, 2 h): 6.4±0.9 % peak
